The subject of series [1] is chloroquine resistant P. yoelii (N-67). As to the kind of experiment: In vivo evaluation in P. yoelii (N-67) Swiss mice model. The conditions noted are these: one value per mouse. How it is done: The molecules were tested at 100 mg/kg dose through intraperitoneal route. The mice received infective inoculum containing 1×10^5 parasites on day 0 and then received four doses of test compound on day 0-3 once daily. Five infected mice were used for each molecule and five infected mice were kept as untreated control. Arteether (5 mg/kg, ×4, intramuscular) was used as positive control. Thin blood smear from tail blood of each mouse was prepared on day 4. The blood smears were fixed in methanol, stained with Giemsa's stain and examined under the light microscope (100×oil immersion). At least 10-15 fields per smear were scanned to obtain percent parasitaemia in treated as well as untreated mice. If significant suppression in percent parasitaemia is observed on day 4, the monitoring continues up to day 28.

Series [2] has as its system Plasmodium falciparum D(6) clone. The settings on record: J Nat Prod. 2004, 67(1), 88-90; read-out: IC(50) against Plasmodium falciparum D(6) clone; cited from earlier work.
The subject of series [3] is Chloroquine-resistant (K1) strain of P. falciparum. The series is described as follows: Malaria SYBR Green I-based fluorescence (MSF) assay, K1 strain. Format: cell-based. The settings on record: Plasmodium falciparum. How it is done:
(§1) The stock (5 mg/mL or 10 mM) solutions of extracts were prepared in DMSO and required dilutions were made in culture medium.
(§2) Two-fold serial dilutions of test samples were made in 96 well plates and incubated with 1.0% parasitized cell suspension containing 0.8% parasitaemia (Asynchronous culture with more than 80% ring stages). The plates were incubated at 37° C. in CO2 incubator in an atmosphere of 5% CO2 and air mixture. 72 hours later 100 μL of lysis buffer containing 2× concentration of SYBR Green-I (Invitrogen) was added to each well and incubated for one hour at 37° C. The plates were examined at 485±20 nm of excitation and 530±20 nm of emission for relative fluorescence units (RFUs) per well using the fluorescence plate reader (FLX800, BIOTEK). IC50 values were obtained by Logit regression analysis of dose response curves (Singh et al. 2011).

The nature of another series: in vitro. The settings on record: monkey. As to the method: (§3) The cells were incubated with test sample dilutions for 72 h and MTT was used as reagent for detection of cytotoxicity. Podophyllotoxin (SIGMA) was used as the standard reference drug.
Another series deals with P. falciparum W(2) clone. The conditions noted are these: J Nat Prod. 2004, 67(1), 88-90; read-out: IC(50) against P. falciparum W(2) clone; cited from earlier work.
Series [4] relates to Chloroquine-sensitive (3D7) strain of P. falciparum. As to the kind of experiment: Malaria SYBR Green I-based fluorescence (MSF) assay, 3D7 strain. Format: cell-based. The conditions noted are these: Plasmodium falciparum. How it is done:
as §1, §2

For series [5], the system named is Vero cell line (C1008; Monkey kidney fibroblast). As to the kind of experiment: in vitro. The conditions noted are these: 72 h. How it is done:
as §3

The test system of series [6] is multidrug resistant human nasopharyngeal carcinoma (KB). The conditions noted are these: when used with vincristine; Bioorg. Med. Chem. Lett. 2012, 22 (24), 7726-7729; cited from earlier work.
Setting [7] is: K1, range given for listed compounds, read-out: IC50 values against K1 culture.
The mark [8] stands for this setting: P. falciparum K1, 72 hours incubation, read-out: IC50 against K1.
Where [9] appears, read: 3D7, range given for listed compounds, read-out: IC50 values against 3D7 culture.
The mark [10] stands for this setting: P. falciparum 3D7, 72 hours incubation, read-out: IC50 against 3D7.
The mark [11] stands for this setting: 100 mg/kg intraperitoneal, four doses day 0-3 once daily.

SMILES strings stand for the structures. Values joined by “and” are separate entries in the source; they are usually repeats but may differ in a detail not shown here. Equal values may be shown once. Read-outs that look alike come from different tables or passages of the source.

In the case of `CCO[C@H]1O[C@@H]2O[C@@]3(C)CC[C@H]4[C@H](C)CC[C@@H]([C@H]1C)[C@@]24OO3` [Arteether, reference compound], in [1] (positive control, 5 mg/kg ×4 intramuscular), the “% parasitaemia on day 4 in 5 individual mice” value (shortened to “% parasitaemia”) was found to be 0.0%.

For orientation: melting point means the temperature of the solid-liquid transition. For the compound `COc1ccc([C@@H](CNC(=O)/C=C/c2ccccc2)OC(=O)/C=C/c2ccccc2)cc1OC` [Compound 1, (S)-2-cinnamamido-1-(3,4-dimethoxyphenyl)ethyl cinnamate], the melting point lay in the range of 132 to 135 °C. Moreover, the IC50 in [2] is 2.04 µM. In series [3] (setting [7]), the IC50 is 1.5 to 4 µM. Besides, in series [3] (setting [8]), the IC50 is 2.56 µM. In the series “in vitro”, the CC50 at 72 h is 80.7 µM. Further, the IC50 in the series on P. falciparum W(2) clone is 3.06 µM. Also, in series [4] (setting [9]), the IC50 was in the range of 2 to 7 µM. Also, the IC50 in series [4] (setting [10]) was determined as 3.9 µM. The “% parasitaemia” value in series [1] (setting [11]) was 09.50% and 13.76% and 11.93% and 11.72% and 13.20%.

With `COc1ccc([C@@H](CNC(=O)/C=C/c2cc(OC)c(OC)c(OC)c2)OC(=O)/C=C/c2cc(OC)c(OC)c(OC)c2)cc1OC` [Compound 41, (S)-1-(3,4-dimethoxyphenyl)-2-((E)-3-(3,4,5-trimethoxyphenyl)acrylamido)ethyl (E)-3-(3,4,5-trimethoxyphenyl)acrylate], the melting point lay within 138 to 140 °C. Moreover, the IC50 in [3] (setting [7]) was 1.5 to 4 µM. For the same compound, the IC50 in series [3] (setting [8]) worked out at 1.78 µM. In addition, in “in vitro”, the CC50 at 72 h is 88 µM. In series [4] (setting [9]), the IC50 was 2 to 7 µM. In addition, the IC50 in series [4] (setting [10]) was 3.16 µM. Moreover, the “% parasitaemia” value in series [1] (setting [11]) is 11.78% and 11.93% and 11.12% and 11.26% and 12.13%.

As for `COc1ccc([C@H](CNC(=O)/C=C/c2cc(OC)c(OC)c(OC)c2)OC(=O)/C=C/c2cc(OC)c(OC)c(OC)c2)cc1OC` [Compound 42, (R)-1-(3,4-dimethoxyphenyl)-2-((E)-3-(3,4,5-trimethoxyphenyl)acrylamido)ethyl (E)-3-(3,4,5-trimethoxyphenyl)acrylate], the melting point was 138 to 140 °C. Besides, the IC50 in [3] (setting [7]) was in the range of 1.5 to 4 µM. Moreover, the IC50 in series [3] (setting [8]) was 2.07 µM. For the same compound, the CC50 at 72 h in “in vitro” was 88.9 µM. Also, in [4] (setting [9]), the IC50 is 2 to 7 µM. In addition, the IC50 in series [4] (setting [10]) amounted to 2.28 µM. Besides, the “% parasitaemia” value in series [1] (setting [11]) was 14.07% and 12.50% and 15.10% and 12.16% and 11.46%.

Consider `COc1ccc([C@@H](CNC(=O)/C=C/c2ccccc2)OC(=O)CCc2ccccc2)cc1OC` [Compound 49, (S)-2-cinnamamido-1-(3,4-dimethoxyphenyl)ethyl 3-phenylpropanoate], for which the melting point was 101 to 103 °C. For the same compound, the IC50 in [3] (setting [8]) is > 10 µM. Also, the CC50 in series [5] turned out to be 36.9 µM. The IC50 in series [4] (setting [10]) is > 10 µM.

As to `COc1ccc([C@@H](CNC(=O)CCc2ccccc2)OC(=O)/C=C/c2ccccc2)cc1OC` [Compound 50, (S)-1-(3,4-dimethoxyphenyl)-2-(3-phenylpropanamido)ethylcinnamate], the melting point lay within 112 to 114 °C. Also, in [3] (setting [8]), the IC50 was > 10 µM. Also, the CC50 in series [5] was found to be 44.3 µM. For the same compound, the IC50 in series [4] (setting [10]) is > 10 µM.

In turn, `CCCC(=O)NC[C@@H](OC(=O)/C=C/c1ccccc1)c1ccc(OC)c(OC)c1` [Compound 51, (S)-2-butyramido-1-(3,4-dimethoxyphenyl)ethyl cinnamate] yielded a melting point of 93 to 94 °C. The IC50 in series [3] (setting [8]) is > 10 µM. This compound yielded a CC50 in [5] of 42.4 µM. The IC50 in series [4] (setting [10]) was > 10 µM.

Regarding `CCCC(=O)O[C@H](CNC(=O)/C=C/c1ccccc1)c1ccc(OC)c(OC)c1` [Compound 52, (S)-2-cinnamamido-1-(3,4-dimethoxyphenyl)ethyl butyrate], the IC50 in [3] (setting [8]) and in series [4] (setting [10]) was > 10 µM throughout. The same compound came in with a CC50 in [5] of 29.9 µM.

`O=C(/C=C/c1ccccc1)OC[C@@H](OC(=O)/C=C/c1ccccc1)c1ccc2ccccc2c1` [Compound 53, (S)-1-(naphthalen-2-yl)ethane-1,2-diyl (2E,2′E)-bis(3-phenylacrylate)] gave a melting point of 120 to 121 °C. In series [3] (setting [8]), the IC50 is > 10 µM. In [5], the CC50 is > 200 µM. Moreover, the IC50 in series [4] (setting [10]) was > 10 µM.

The compound `O=C(/C=C/c1ccccc1)OC[C@H](OC(=O)/C=C/c1ccccc1)c1ccc2ccccc2c1` [Compound 54, (R)-1-(naphthalen-2-yl)ethane-1,2-diyl (2E,2′E)-bis (3-phenylacrylate)] displayed a melting point of 123 to 124 °C. In [3] (setting [8]), the IC50 is 2.15 µM. In [5], the CC50 was determined as 181 µM. Also, the IC50 in series [4] (setting [10]) is > 10 µM.

Turning to `COc1ccc([C@@H](COC(=O)/C=C/c2cc(OC)c(OC)c(OC)c2)OC(=O)/C=C/c2cc(OC)c(OC)c(OC)c2)cc1OC` [Compound 56, (S)-1-(3,4-dimethoxyphenyl)ethane-1,2-diyl(2E,2′E)-bis(3-(3,4,5-trimethoxyphenyl)acrylate)], the IC50 in series [3] (setting [7]) is 1.5 to 4 µM; in series [3] (setting [8]), 2.62 µM; in series [4] (setting [9]), 2 to 7 µM; in series [4] (setting [10]) it was 2.34 µM. Also, in the series “in vitro”, the CC50 at 72 h turned out to be 55.7 µM. Also, the “% parasitaemia” value in series [1] (setting [11]) is 06.06% and 08.31% and 16.23% and 13.92% and 11.13%.

Regarding `COc1cc(/C=C/C(=O)OC[C@@H](OC(=O)/C=C/c2cc(OC)c(OC)c(OC)c2)c2cc(OC)c(OC)c(OC)c2)cc(OC)c1OC` [Compound 57, (S)-1-(3,4,5-trimethoxyphenyl)ethane-1,2-diyl(2E,2′E)-bis(3-(3,4,5-trimethoxyphenyl)acrylate)], the melting point was in the range of 61 to 62 °C. Also, the IC50 in [3] (setting [7]) was in the range of 1.5 to 4 µM. For the same compound, the IC50 in [3] (setting [8]) came to 2.23 µM. The compound also came in with a CC50 at 72 h in the series “in vitro” of 47.4 µM. Moreover, the IC50 in [4] (setting [9]) lay in the range of 2 to 7 µM. In addition, the IC50 in [4] (setting [10]) was determined as 6.29 µM.

As to `COc1cc(/C=C/C(=O)NC[C@@H](OC(=O)/C=C/c2cc(OC)c(OC)c(OC)c2)c2cc(OC)c(OC)c(OC)c2)cc(OC)c1OC` [Compound 58, (S)-1-(3,4,5-trimethoxyphenyl)-2-((E)-3-(3,4,5-trimethoxyphenyl)acrylamido)ethyl (E)-3-(3,4,5-trimethoxyphenyl)acrylate], the melting point was in the range of 67 to 69 °C. The IC50 in series [3] (setting [7]) lay within 1.5 to 4 µM. Also, the IC50 in [3] (setting [8]) was 1.93 µM. Further, in the series “in vitro”, the CC50 at 72 h came to 42.7 µM. The IC50 in series [4] (setting [9]) lay within 2 to 7 µM. Moreover, the IC50 in [4] (setting [10]) came to 1.89 µM. For the same compound, in [1] (setting [11]), the “% parasitaemia” value is 10.10% and 10.16% and 13.50% and 07.50% and 11.92%.

As for `COc1cc(C(=O)OCC(OC(=O)c2cc(OC)c(OC)c(OC)c2)c2cc(OC)c(OC)c(OC)c2)cc(OC)c1OC` (stereo not shown) [bis-trimethoxybenzoyl derivative], the “chemoreversal activity, fold more active than verapamil” value in series [6] was 340 fold.
